The source made the active and inactive calls. The calls are words filed in the database; no cut-off is given here.
How the values were obtained:
[1] = tested on: MKN-28; assay: Cytotoxicity against human MKN-28 cells assessed as reduction in cell viability at 12.5 to 25 uM incubated for 24 hrs by MTT assay; format: functional, cell-based; conditions: dose 12.5-25 µM
[2] = Cytotoxicity against HDF cells assessed as reduction in cell viability at 12.5 to 25 uM incubated for 24 hrs by MTT assay; format: toxicity, cell-based; conditions: human, dose 12.5-25 µM
[3] = tested on: MKN-28; assay: Cytotoxicity against human MKN-28 cells assessed as reduction in cell viability at 12.5 to 50 uM incubated for 24 hrs by MTT assay; format: functional, cell-based; conditions: dose 12.5-50 µM
[4] = Cytotoxicity against HDF cells assessed as reduction in cell viability at 12.5 to 50 uM incubated for 24 hrs by MTT assay; format: toxicity, cell-based; conditions: human, dose 12.5-50 µM
[5] = tested on: MKN-28; assay: Antiproliferative activity against human MKN-28 cells assessed as inhibition of cell growth incubated for 24 hrs by MTT assay; format: functional, cell-based; conditions: MKN-28, 24 h
[6] = Cytotoxicity against HDF cells assessed as inhibition of cell growth incubated for 24 hrs by MTT assay; format: toxicity, cell-based; conditions: human
[7] = Selectivity index, ratio of IC50 for cytotoxicity against HDF cells to IC50 for antiproliferative activity against human MKN-28 cells; format: toxicity, cell-based; conditions: HDF cells versus MKN-28 cells, read-out: Ratio IC50
[8] = tested on: Huh-7; assay: Antiproliferative activity against human Huh-7 cells assessed as inhibition of cell growth incubated for 24 hrs by Alamar blue assay; format: functional, cell-based; conditions: Huh-7, 24 h
[9] = Selectivity index, ratio of IC50 for cytotoxicity against HDF cells to IC50 for antiproliferative activity against human Huh-7 cells; format: toxicity, cell-based; conditions: HDF cells versus Huh-7 cells, read-out: Ratio IC50
[10] = tested on: HepG2; assay: Antiproliferative activity against human HepG2 cells assessed as inhibition of cell growth incubated for 24 hrs by Alamar blue assay; format: functional, cell-based; conditions: HepG2, 24 h
[11] = Selectivity index, ratio of IC50 for cytotoxicity against HDF cells to IC50 for antiproliferative activity against human HepG2 cells; format: toxicity, cell-based; conditions: HDF cells versus HepG2 cells, read-out: Ratio IC50
[12] = tested on: MKN-28; assay: Antiproliferative activity against human MKN-28 cells assessed as inhibition of cell growth incubated for 2 days by SRB assay; format: functional, cell-based; conditions: MKN-28, 48 h

| Compound | IC50 [5] [µM] | IC50 [8] [µM] | IC50 [10] [µM] | IC50 [12] [µM] | Activity [1] | Activity [2] | Activity [3] | Activity [4] | IC50 at 24 h [6] [µM] | selectivity ratio [7] | selectivity ratio [9] | selectivity ratio [11] |
| --- | --- | --- | --- | --- | --- | --- | --- | --- | --- | --- | --- | --- |
| COc1cc(NCCCCNC(=O)/C=C/c2ccccc2)c2nc3cc(Cl)ccc3cc2c1 | – | – | – | – | inactive | Non-Toxic | – | – | – | – | – | – |
| COc1cc(NCCCCNC(=O)/C=C/c2ccc(F)cc2)c2nc3cc(Cl)ccc3cc2c1 | – | – | – | – | inactive | Non-Toxic | – | – | – | – | – | – |
| COc1cc(NCCCCNC(=O)/C=C/c2ccc(C)cc2)c2nc3cc(Cl)ccc3cc2c1 | – | – | – | – | inactive | Non-Toxic | – | – | – | – | – | – |
| COc1cc(NCCCCNC(=O)/C=C/c2cccc(F)c2)c2nc3cc(Cl)ccc3cc2c1 | – | – | – | – | inactive | Non-Toxic | – | – | – | – | – | – |
| COc1cc(NCCCCNC(=O)/C=C/c2ccc(C(F)(F)F)cc2)c2nc3cc(Cl)ccc3cc2c1 | – | – | – | – | inactive | Non-Toxic | – | – | – | – | – | – |
| COc1cc(NCCCCNC(=O)/C=C/c2ccc(C(C)C)cc2)c2nc3cc(Cl)ccc3cc2c1 | – | – | – | – | inactive | Non-Toxic | – | – | – | – | – | – |
| CCN(CC)CCCNc1c2ccc(Cl)cc2nc2c(NCCCCNC(=O)/C=C/c3ccccc3)cc(OC)cc12 | 15.4 | 12.1 | 4.11 | – | – | – | Active | Non-Toxic | > 50 | > 3.2 | > 4.1 | > 12.2 |
| CNc1ccc(/C=C/C(=O)NCCCCNc2cc(OC)cc3cc4ccc(Cl)cc4nc23)cc1 | – | – | – | – | inactive | Non-Toxic | – | – | – | – | – | – |
| CCN(CC)CCCC(C)Nc1c2ccc(Cl)cc2nc2ccc(OC)cc12 (stereo not drawn) [QUINACRINE] | – | 8.7 | 4.48 | 2.46 | – | – | – | – | – | – | – | – |
| COc1cc(NCCCCNC(=O)/C=C/c2ccc(OC)c(OC)c2)c2nc3cc(Cl)ccc3cc2c1 | – | – | – | – | inactive | Non-Toxic | – | – | – | – | – | – |
| COc1cc(NCCCCNC(=O)/C=C/c2ccc([N+](=O)[O-])cc2)c2nc3cc(Cl)ccc3cc2c1 | – | – | – | – | inactive | Non-Toxic | – | – | – | – | – | – |
| COc1cc(NCCCCNC(=O)/C=C/c2cccc(Br)c2)c2nc3cc(Cl)ccc3cc2c1 | – | – | – | – | inactive | Non-Toxic | – | – | – | – | – | – |

Second part, led by results:

| IC50 [5] [µM] | IC50 [8] [µM] | IC50 [10] [µM] | IC50 [12] [µM] | Compound | Activity [1] | Activity [2] | Activity [3] | Activity [4] | IC50 at 24 h [6] [µM] | selectivity ratio [7] | selectivity ratio [9] | selectivity ratio [11] |
| --- | --- | --- | --- | --- | --- | --- | --- | --- | --- | --- | --- | --- |
| 12.7 | 12.9 | 5.06 | – | CCN(CC)CCCC(C)Nc1c2ccc(Cl)cc2nc2c(NCCCCNC(=O)/C=C/c3cccc(F)c3)cc(OC)cc12 (stereo not drawn) | – | – | Active | Non-Toxic | > 50 | > 3.9 | > 3.9 | > 9.9 |
| 10 | 7.26 | 4.17 | – | CCN(CC)CCCC(C)Nc1c2ccc(Cl)cc2nc2c(NCCCCNC(=O)/C=C/c3ccccc3)cc(OC)cc12 (stereo not drawn) | – | – | Active | Non-Toxic | > 50 | > 5 | > 6.9 | > 12 |
| 15.5 | 12.4 | 5.38 | – | CCN(CC)CCCNc1c2ccc(Cl)cc2nc2c(NCCCCNC(=O)/C=C/c3ccc(OC)cc3)cc(OC)cc12 | – | – | Active | Non-Toxic | > 50 | > 3.2 | > 4 | > 9.3 |
| 13 | 11.5 | 5.21 | – | CCN(CC)CCCNc1c2ccc(Cl)cc2nc2c(NCCCCNC(=O)/C=C/c3cccc(F)c3)cc(OC)cc12 | – | – | Active | Non-Toxic | > 50 | > 3.8 | > 4.3 | > 9.6 |
| 12.2 | 11.2 | 6.32 | – | CCN(CC)CCCNc1c2ccc(Cl)cc2nc2c(NCCCCNC(=O)/C=C/c3ccc(F)cc3)cc(OC)cc12 | – | – | Active | Non-Toxic | > 50 | > 4.1 | > 4.5 | > 7.9 |
| – | 6.05 | 0.425 | 0.34 | COc1cccc2c1C(=O)c1c(O)c3c(c(O)c1C2=O)C[C@@](O)(C(=O)CO)C[C@@H]3O[C@H]1C[C@H](N)[C@H](O)[C@H](C)O1 [DOXORUBICIN] | – | – | – | – | – | – | – | – |
| 12.5 | 12.4 | 7.64 | – | CCN(CC)CCCC(C)Nc1c2ccc(Cl)cc2nc2c(NCCCCNC(=O)/C=C/c3ccc(F)cc3)cc(OC)cc12 (stereo not drawn) | – | – | Active | Non-Toxic | > 50 | > 4 | > 4 | > 6.5 |
| 13.7 | 12.1 | 3.33 | – | CCN(CC)CCCC(C)Nc1c2ccc(Cl)cc2nc2c(NCCCCNC(=O)/C=C/c3ccc(OC)cc3)cc(OC)cc12 (stereo not drawn) | – | – | Active | Non-Toxic | > 50 | > 3.6 | > 4.1 | > 15 |

— ChEMBL document CHEMBL6127014, “Repurposing antiplasmodial leads for cancer: Exploring the antiproliferative effects of N-cinnamoyl-aminoacridines” (Bioorg Med Chem Lett, 2024)
